One assay concerns the target FXR (Homo sapiens (Human), UniProt Q96RI1). Description: transient human FXR/Gal4-luciferase reporter assay. The assay is classed as cell-based.
Conditions: not given
The method in brief:
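Compound exposure ran overnight at 37 °C and activity was measured as luminescence with Steady-Glo reagent. The cells were a HEK293 line stably expressing firefly luciferase under five Gal4 response elements. They were transiently transfected, one night beforehand, with a plasmid encoding Gal4 DNA-binding domain fused to the human FXR ligand-binding domain.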
FXR, sequence (Q96RI1 262-486): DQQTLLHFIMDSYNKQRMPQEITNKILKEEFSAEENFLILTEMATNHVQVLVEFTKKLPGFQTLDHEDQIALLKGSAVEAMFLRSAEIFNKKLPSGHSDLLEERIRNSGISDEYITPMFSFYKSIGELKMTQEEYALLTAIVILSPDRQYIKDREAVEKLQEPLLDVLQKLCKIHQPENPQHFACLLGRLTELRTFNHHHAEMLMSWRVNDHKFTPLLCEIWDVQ
`O=C(N(CC12CCC(c3nc(C(F)F)no3)(CC1)CC2)c1cccc(-c2cnc(C(F)(F)F)nc2)c1)C12CC(F)(C1)C2` [Example 467, N-((4-(3-(difluoromethyl)-1,2,4-oxadiazol-5-yl)bicyclo[2.2.2]octan-1-yl)methyl)-3-fluoro-N-(3-(2-(trifluoromethyl)pyrimidin-5-yl)phenyl)bicyclo[1.1.1]pentane-1-carboxamide]: the EC50 turned out to be 2110 nM. On the same count and under the same terms, the value for `O=C(N(CC12CCC(c3noc(C4(C(F)(F)F)CC4)n3)(CC1)CC2)c1cccc(-c2ccc(OC(F)F)cc2)c1)C12CC(F)(C1)C2` [Example 522, N-(4′-(difluoromethoxy)-[1,1′-biphenyl]-3-yl)-3-fluoro-N-((4-(5-(1-(trifluoromethyl)cyclopropyl)-1,2,4-oxadiazol-3-yl)bicyclo[2.2.2]octan-1-yl)methyl)bicyclo[1.1.1]pentane-1-carboxamide] was 69 nM.

The assay is the same for the next values; noted with them: Gal4-hFXR fusion construct, HEK293 reporter cells; response relative to 8 μM GW-4064.
In turn, `CC(C)(C)c1nc(C23CCC(CN(C(=O)C4CC(O)(C(F)(F)F)C4)c4cccc(-c5ccc(NS(C)(=O)=O)cc5)c4)(CC2)CC3)no1` [Example 513, (1S,3S)—N-((4-(5-(tert-butyl)-1,2,4-oxadiazol-3-yl)bicyclo[2.2.2]octan-1-yl)methyl)-3-hydroxy-N-(4′-(methylsulfonamido)-[1,1′-biphenyl]-3-yl)-3-(trifluoromethyl)cyclobutane-1-carboxamide] had an EC50 of 922 nM. Consider `Cc1nc2ccc(-c3cccc(N(CC45CCC(c6ccc(C7(C#N)CC7)cc6)(CC4)OC5)C(=O)C45CC(F)(C4)C5)c3)cc2s1` [Example 346, N-((1-(4-(1-cyanocyclopropyl)phenyl)-2-oxabicyclo[2.2.2]octan-4-yl)methyl)-3-fluoro-N-(3-(2-methylbenzo[d]thiazol-6-yl)phenyl)bicyclo[1.1.1]pentane-1-carboxamide], for which the EC50 is 181 nM.

Regarding `COc1cc(-c2cccc(N(CC34CCC(c5ccnc(C)c5)(CC3)CC4)C(=O)C34CC(F)(C3)C4)c2)ccn1` [Example 238, 3-Fluoro-N-(3-(2-methoxypyridin-4-yl)phenyl)-N-((4-(2-methylpyridin-4-yl)bicyclo[2.2.2]octan-1-yl)methyl)bicyclo[1.1.1]pentane-1-carboxamide], the EC50 turned out to be 517 nM. In the case of `O=C(N(CC12CCC(c3nc(C4CC4)no3)(CC1)CC2)c1cccc(-c2cccc(OC(F)(F)C(F)F)c2)c1)C12CC(F)(C1)C2` [Example 299, N-((4-(3-cyclopropyl-1,2,4-oxadiazol-5-yl)bicyclo[2.2.2]octan-1-yl)methyl)-3-fluoro-N-(3′-(1,1,2,2-tetrafluoroethoxy)-[1,1′-biphenyl]-3-yl)bicyclo[1.1.1]pentane-1-carboxamide], the midpoint of the response, the EC50, lay at 660 nM. The compound `O=C(N(CC12CCC(c3nc(C4CC4)no3)(CC1)CC2)c1cccc(-c2cnc3cccnn23)c1)C12CC(F)(C1)C2` [Example 318, N-((4-(3-cyclopropyl-1,2,4-oxadiazol-5-yl)bicyclo[2.2.2]octan-1-yl)methyl)-3-fluoro-N-(3-(imidazo[1,2-b]pyridazin-3-yl)phenyl)bicyclo[1.1.1]pentane-1-carboxamide] yielded an EC50 of 172 nM. Same read-out and setting: the figure for `O=C(N(CC12CCC(c3noc(C(F)(F)F)n3)(CC1)CC2)c1cccc(C2CC2)c1)C12CC(F)(C1)C2` [Example 572, N-(3-cyclopropylphenyl)-3-fluoro-N-((4-(5-(trifluoromethyl)-1,2,4-oxadiazol-3-yl)bicyclo[2.2.2]octan-1-yl)methyl)bicyclo[1.1.1]pentane-1-carboxamide] is 146 nM. Still for that read-out and setting: the figure for `CS(=O)(=O)Nc1ccc(-c2cccc(N(CC34CCC(c5ccc(C6(C#N)CC6)cc5)(CC3)OC4)C(=O)C34CC(F)(C3)C4)c2)cc1` [Example 345, N-((1-(4-(1-Cyanocyclopropyl)phenyl)-2-oxabicyclo[2.2.2]octan-4-yl)methyl)-3-fluoro-N-(4′-(methylsulfonamido)-[1,1′-biphenyl]-3-yl)bicyclo[1.1.1]pentane-1-carboxamide] is 264 nM. With `Cc1ccc(-c2cccc(N(CC34CCC(c5nc(C6CC6)no5)(CC3)CC4)C(=O)C34CC(F)(C3)C4)c2)nc1` [Example 325, N-((4-(3-cyclopropyl-1,2,4-oxadiazol-5-yl)bicyclo[2.2.2]octan-1-yl)methyl)-3-fluoro-N-(3-(5-methylpyridin-2-yl)phenyl)bicyclo[1.1.1]pentane-1-carboxamide], a half-maximal response (EC50) required 24 nM. Against the preceding compound, the EC50 is about 11-fold lower. Still for that read-out and setting: the value for “N-((4-(3-cyclopropyl-1,2,4-oxadiazol-5-yl)bicyclo[2.2.2]octan-1-yl)methyl)-3-fluoro-N-(3-morpholinophenyl)bicyclo[1.1.1]pentane-1-carboxamide [Example 417]” was 207 nM.

The compound `CC(C)(F)c1nc(C23CCC(CN(C(=O)OC(C)(C)C(F)(F)F)c4cccc(-c5ccc(C6(C#N)CC6)c(F)c5)c4)(CC2)CC3)no1` [Example 591, 1,1,1-trifluoro-2-methylpropan-2-yl (4′-(1-cyanocyclopropyl)-3′-fluoro-[1,1′-biphenyl]-3-yl)((4-(5-(2-fluoropropan-2-yl)-1,2,4-oxadiazol-3-yl)bicyclo[2.2.2]octan-1-yl)methyl) carbamate] came in with an EC50 of 77 nM. In the case of `CC(C)(F)c1nc(C23CCC(CN(c4cccc(C5=CCOCC5)c4)C(=O)[C@H]4C[C@](O)(C(F)(F)F)C4)(CC2)CC3)no1` [Example 588, (cis)-N-(3-(3,6-dihydro-2H-pyran-4-yl)phenyl)-N-((4-(5-(2-fluoropropan-2-yl)-1,2,4-oxadiazol-3-yl)bicyclo[2.2.2]octan-1-yl)methyl)-3-hydroxy-3-(trifluoromethyl) cyclobutane-1-carboxamide], the EC50 stood at 395 nM. `Cn1nc(C23CCC(CN(C(=O)C45CC(F)(C4)C5)c4cccc(-c5ccc(NS(C)(=O)=O)cc5)c4)(CC2)CC3)cc1C1CC1` [Example 406, N-((4-(5-cyclopropyl-1-methyl-1H-pyrazol-3-yl)bicyclo[2.2.2]octan-1-yl)methyl)-3-fluoro-N-(4′-(methylsulfonamido)-[1,1′-biphenyl]-3-yl)bicyclo[1.1.1]pentane-1-carboxamide] yielded an EC50 of 203 nM. The same measure, in the same setting: the figure for `O=C(N(CC12CCC(c3nc(C4CC4)no3)(CC1)CC2)c1cccc(-c2ccc(Cl)c(Cl)c2)c1)C12CC(F)(C1)C2` [Example 286, N-((4-(3-cyclopropyl-1,2,4-oxadiazol-5-yl)bicyclo[2.2.2]octan-1-yl)methyl)-N-(3′,4′-dichloro-[1,1′-biphenyl]-3-yl)-3-fluorobicyclo[1.1.1]pentane-1-carboxamide] is 361 nM.

For `COc1cc(-c2cccc(N(CC34CCC(C(=O)NC5CC5)(CC3)CC4)C(=O)C34CC(F)(C3)C4)c2)ccn1` [Example 570, N-cyclopropyl-4-((3-fluoro-N-(3-(2-methoxypyridin-4-yl)phenyl)bicyclo[1.1.1]pentane-1-carboxamido)methyl)bicyclo[2.2.2]octane-1-carboxamide], the EC50 turned out to be 926 nM. `COc1ccc(-c2cccc(N(CC34CCC(c5nc(C6CC6)no5)(CC3)CC4)C(=O)C34CC(F)(C3)C4)c2)cc1` [Example 282, N-((4-(3-cyclopropyl-1,2,4-oxadiazol-5-yl)bicyclo[2.2.2]octan-1-yl)methyl)-3-fluoro-N-(4′-methoxy-[1,1′-biphenyl]-3-yl)bicyclo[1.1.1]pentane-1-carboxamide] registered an EC50 of 19 nM. On the same count and under the same terms, the value for `CS(=O)(=O)Nc1ccc(-c2cccc(N(CC34CCC(c5nc(C6CC6)no5)(CC3)CC4)C(=O)C34CC(F)(C3)C4)c2)cn1` [Example 270, N-((4-(3-cyclopropyl-1,2,4-oxadiazol-5-yl)bicyclo[2.2.2]octan-1-yl)methyl)-3-fluoro-N-(3-(6-(methylsulfonamido)pyridin-3-yl)phenyl)bicyclo[1.1.1]pentane-1-carboxamide] was 442 nM; that for `CC(C)(C#N)OC(=O)N(CC12CCC(c3noc(C(C)(C)F)n3)(CC1)CC2)c1cccc(-c2ccc(C(C)(C)O)cc2)c1` [Example 598, 2-cyanopropan-2-yl ((4-(5-(2-fluoropropan-2-yl)-1,2,4-oxadiazol-3-yl)bicyclo[2.2.2]octan-1-yl)methyl)(4′-(2-hydroxypropan-2-yl)-[1,1′-biphenyl]-3-yl) carbamate] was 29 nM. For `O=C(C1CC(O)(C(F)(F)F)C1)N(CC12CCC(C(=O)NS(=O)(=O)C3CC3)(CC1)CC2)c1cccc(-c2ccc(OC(F)F)cc2)c1` (stereo not drawn) [Example 638, N-(cyclopropylsulfonyl)-4-(((cis)-N-(4′-(difluoromethoxy)-[1,1′-biphenyl]-3-yl)-3-hydroxy-3-(trifluoromethyl)cyclobutane-1-carboxamido)methyl)bicyclo[2.2.2]octane-1-carboxamide], the EC50 turned out to be 2000 nM. Against the preceding compound, the EC50 is about 69-fold higher.

For `CC(C)(C)c1noc(C23CCC(CN(C(=O)C45CC(F)(C4)C5)c4cccc(-c5cnc(NS(C)(=O)=O)nc5)c4)(CC2)CC3)n1` [Example 367, N-((4-(3-(tert-butyl)-1,2,4-oxadiazol-5-yl)bicyclo[2.2.2]octan-1-yl)methyl)-3-fluoro-N-(3-(2-(methylsulfonamido)pyrimidin-5-yl)phenyl)bicyclo[1.1.1]pentane-1-carboxamide], the EC50 was 645 nM. For the compound `CC(C)(C)NC(=O)N(CC12CCC(c3noc(C(F)(F)F)n3)(CC1)CC2)c1cccc(-c2ccc(C(C)(C)O)cc2)c1` [Example 611, 3-(tert-butyl)-1-(4′-(2-hydroxypropan-2-yl)-[1,1′-biphenyl]-3-yl)-1-((4-(5-(trifluoromethyl)-1,2,4-oxadiazol-3-yl)bicyclo[2.2.2]octan-1-yl)methyl) urea], the midpoint of the response, the EC50, lay at 41 nM. This EC50 is about 16-fold lower than that of the compound before. `CCOc1ncc(-c2cccc(N(CC34CCC(c5nc(C6CC6)no5)(CC3)CC4)C(=O)C34CC(F)(C3)C4)c2)cn1` [Example 289, N-((4-(3-cyclopropyl-1,2,4-oxadiazol-5-yl)bicyclo[2.2.2]octan-1-yl)methyl)-N-(3-(2-ethoxypyrimidin-5-yl)phenyl)-3-fluorobicyclo[1.1.1]pentane-1-carboxamide] had an EC50 of 48 nM.
